Measured values: US20250163057A1, “DCN-1 MODULATING COMPOUNDS AND METHODS OF USE THEREOF” (Cellarity, Inc., priority 2023, published 2025)
Like-named read-outs stand apart in the source and are kept apart here.

Experiments:
[1] = system: Cullin-3 (CUL3) neddylation; test: AlphaLISA assay for Cullin-3 (CUL3) neddylation in TF 1 cells; type: cell-based; details: Homo sapiens, TF-1, 3 h, 3 hours treatment
Summary of the method: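 TF 1 cells in unsupplemented IMDM treated with compound concentrations for 3 h, then lysed. CUL3 neddylation detected by AlphaLISA (biotinylated anti-NEDD8, anti-CUL3 acceptor beads overnight, streptavidin donor beads 1 h); normalized to vehicle (0%) and 1 μM DI-1548 (100%), IC50 from Hill fits.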

[2] = target: DCN1 (DCUND1) protein PONY domain (Homo sapiens (Human), UniProt Q96GG9); test: TR-FRET assay, DCN1 binding with FAM-labeled probe
DCN1 (DCUND1) protein PONY domain, sequence (Q96GG9 60-248): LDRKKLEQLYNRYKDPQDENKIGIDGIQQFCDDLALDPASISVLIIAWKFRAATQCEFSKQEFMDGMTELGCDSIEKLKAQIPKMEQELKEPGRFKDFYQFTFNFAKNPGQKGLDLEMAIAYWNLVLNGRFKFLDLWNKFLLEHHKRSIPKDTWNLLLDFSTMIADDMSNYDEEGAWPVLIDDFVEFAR
Summary of the method: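 Binding was read as the TR-FRET ratio between a FAM-tagged inhibitor probe and Tb-labeled biotinylated E. coli-expressed DCN1 PONY domain, measured 1, 5 and 24 h after compound addition. The two setups used 5 nM protein/20 nM FAM-probe or 0.31 nM protein/900 nM total probe (100 nM labeled), in TritonX buffer with 200 mM NaCl.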

[3] = 24 hr after treatment with compound, read-out: TR FRET IC50 24 hr
[4] = read-out: TR FRET IC50 1 hr, 1 hr after treatment with compound
[5] = TR FRET IC50 1 hr (nM), 1 hr after treatment with compound

SMILES	IC50 [1] [µM]	IC50 [2, 3] [nM]	IC50 [2, 4] [nM]	IC50 [2, 5] [nM]
C=C(CN1CC2CC(C1)O2)C(=O)NCc1nn(-c2ccccc2)c2c1[C@H](c1ccc(F)cc1)[C@H](NC(=O)c1cccc(C(F)(F)F)c1)C(=O)N2CC [Compound I-56]	≤ 0.1	≤ 200	≤ 200	–
CCN1C(=O)[C@H](NC(=O)c2cccc(C(F)(F)F)c2)[C@H](c2ccc(F)cc2)c2c(C(=O)N[C@@H](C)C#N)nn(-c3ccccc3)c21 [Compound I-255, (4R,5R)—N—((S)-1-cyanoethyl)-7-ethyl-4-(4-fluorophenyl)-6-oxo-1-phenyl-5-(3-(trifluoromethyl)benzamido)-4,5,6,7-tetrahydro-1H-pyrazolo[3,4-b]pyridine-3-carboxamide]	> 1	1000 to 3000	–	1000 to 3000
CCN1C(=O)[C@@H](NC(=O)c2cccc(C(F)(F)F)c2)[C@@H](c2ccc(F)cc2)c2c(CNC/C=C/C(=O)N3CCCC3)nn(-c3ccccc3)c21 [Compound I-400]	0.1 to 1	≤ 200	≤ 200	–
CCN1C(=O)[C@H](NC(=O)c2cccc(C(F)(F)F)c2)[C@H](c2ccc(F)cc2)c2c(C(=O)N3CCC[C@H]3C#N)nn(C3CCOCC3)c21 [Compound I-401]	> 1	1000 to 3000	–	1000 to 3000
CCN1C(=O)[C@@H](NC(=O)c2nccc(C(F)(F)F)n2)[C@H](c2ccc(F)cc2)c2c(CN(C)C(=O)CC#N)nn(-c3ccccc3)c21 [Compound I-402, N-((4R,5S)-3-((2-cyano-N-methylacetamido)methyl)-7-ethyl-4-(4-fluorophenyl)-6-oxo-1-phenyl-4,5,6,7-tetrahydro-1H-pyrazolo[3,4-b]pyridin-5-yl)-4-(trifluoromethyl)pyrimidine-2-carboxamide]	0.1 to 1	1000 to 3000	–	1000 to 3000
CCN1C(=O)[C@@H](NC(=O)c2cccc(C(F)(F)F)c2)[C@H](c2ccc(F)cc2)c2c(CN(C)C(=O)CC#N)nn(-c3ccccc3)c21 [Compound I-403]	0.1 to 1	200 to 1000	–	200 to 1000
CCN1C(=O)[C@H](NC(=O)c2cccc(C(F)(F)F)c2)[C@H](C2CC2)c2c(C(=O)N(CC#N)C3CC3)nn(C3CCOCC3)c21 [Compound I-405]	> 1	1000 to 3000	–	1000 to 3000
CCN1C(=O)[C@@H](NC(=O)c2nccc(C(F)(F)F)n2)[C@@H](c2ccc(F)cc2)c2c(CNC(=O)/C=C/C(=O)OC(C)(C)C)nn(-c3ccccc3)c21 [Compound I-408]	0.1 to 1	≤ 200	≤ 200	–
CCN1C(=O)[C@H](NC(=O)c2cccc(C(F)(F)F)c2)[C@H](c2ccc(F)cc2)c2c([C@H](C)NC#N)nn(-c3ccccc3)c21 [Compound I-410]	0.1 to 1	200 to 1000	–	1000 to 3000
CCN1C(=O)[C@@H](NC(=O)c2cccc(C(F)(F)F)c2)[C@@H](c2ccc(F)cc2)c2c([C@@H](C)NC#N)nn(C3CCOCC3)c21 [Compound I-412]	0.1 to 1	≤ 200	≤ 200	–
CCN1C(=O)[C@H](NC(=O)c2cccc(C(F)(F)F)c2)[C@H](c2ccc(F)cc2)c2c(C(=O)N(CC#N)C3CC3)nn(C3CCOCC3)c21 [Compound I-414]	> 1	1000 to 3000	–	1000 to 3000
CCN1C(=O)[C@@H](NC(=O)c2cccc(C(F)(F)F)c2)[C@@H](c2ccc(F)cc2)c2c(C(=O)N3[C@H](C)CC[C@H]3C#N)nn(C3CCOCC3)c21 [Compound I-416]	0.1 to 1	200 to 1000	–	1000 to 3000
CCN1C(=O)[C@@H](NC(=O)c2cccc(C(F)(F)F)c2)[C@@H](c2ccc(F)cc2)c2c(CN(C)CC#N)nn(-c3ccccc3)c21 [Compound I-417]	0.1 to 1	200 to 1000	–	1000 to 3000
CCCn1nc(C(=O)N(CC#N)C2CC2)c2c1N(CC)C(=O)[C@@H](NC(=O)c1cccc(C(F)(F)F)c1)[C@H]2C1CC1 [Compound I-427]	0.1 to 1	200 to 1000	–	1000 to 3000
CCCn1nc(C(=O)N2CCC[C@H]2C#N)c2c1N(CC)C(=O)[C@@H](NC(=O)c1cccc(C(F)(F)F)c1)[C@H]2c1ccc(F)cc1 [Compound I-428]	≤ 0.1	≤ 200	–	200 to 1000
CCN1C(=O)[C@@H](NC(=O)c2cccc(C(F)(F)F)c2)[C@@H](C2CC2)c2c(C(=O)N(C)[C@H](C#N)CCN(C)C3COC3)nn(C3CCOCC3)c21 [Compound I-429]	≤ 0.1	≤ 200	≤ 200	–
